Results published in US4515951A, “Preparation of 5,6,7,7a-tetrahydro-4H-thieno[3,2-c]pyridin-2-one compounds” (Sanofi, priority 1980, dated 1985).
Like-named read-outs stand apart in the source and are kept apart here.

Legend:
[1] = system: platelet aggregation by ADP; assay: inhibiting action on platelet aggregation by ADP (ADP TEST), plasma of orally treated rats; format: in vivo, Wistar rats; conditions: Rattus norvegicus; for inhibition at 5 mg/kg / inhibition at 12.5 mg/kg / inhibition at 25 mg/kg / inhibition at 50 mg/kg / inhibition at 100 mg/kg: read-out: Percentage inhibition of platelet aggregation (ADP test); for minimal effective dose: oral, rats, stated for the aggregation tests (ADP and collagen), read-out: dose at which significant (or similar) platelet aggregation inhibiting activity manifests itself
Procedure: (§1) A sample of blood is taken from the jugular vein of Wistar rats, which have previously been treated with the compound to be tested. From this blood, which is citrate-treated and centrifuged, there is reconstituted a plasma containing 600,000±20,000 platelets per mm^3, which is employed in all the aggregation measurements.
(§2) 0.4 ml. of plasma is treated in a siliconised tube provided with a bar magnet which is also siliconised. The tube is introduced into an aggregometer connected to an apparatus with which variations in optical density can be recorded. When the light transmission has reached a stable value, 0.5 ml. of a solution containing […] of ADP (adenosine diphosphate)is introduced into the tube.
(§3) Platelet aggregation then causes an increase in light transmission, followed by a reduction in light transmission due to the subsequent disaggregation stage.
(§4) The maximum variation in optical density thus determined relative to that of a plasma free of platelets characterises the intensity of aggregation.
(§5) The measurements are carried out during the 2 hours which follow the taking of the blood sample, this sample being taken 3 hours after treatment with the derivative to be tested.
(§6) Groups of 20 rats were used. Each group received a single dose of the compound to be tested, administered orally, the same compound being administered at different doses ranging from 5 mg./kg. to 100 mg./kg.
(§7) The results obtained are given in the following Tables II and III, which show the percentage inhibition of platelet aggregation obtained relative to the control experiment, 3 hours after treatment with the compound to be tested.

[2] = system: platelet aggregation by collagen; assay: inhibiting action on platelet aggregation by collagen (COLLAGEN TEST), plasma of orally treated rats; format: in vivo, Wistar rats; conditions: Rattus norvegicus, read-out: Percentage inhibition of platelet aggregation (collagen test)
Procedure: as §1, §2, §3, §4, §5
The ADP solution is replaced by a solution of collagen (extracted from cattle tendons).
as §6, §7

[3] = in vivo; conditions: mouse, iv
Text: This study was concerned with the acute, chronic, sub-chronic and delayed toxicities.

[4] = system: experimental thrombosis; assay: anti-thrombosis activity, experimental thrombosis caused by extracorporal circulation (Umetsu and Sonoi); format: in vivo, rats; conditions: for Average weight of the thrombi: control (5% gum arabic) 30.41
Procedure: This activity was studied by the experimental thrombosis method caused by extracorporal circulation, described by Umetsu and Sonoi (Thrombos. Haemost., 39, […]).
The left jugular vein and the right external carotid are exposed in rats anaesthetised by an intraperitoneal injection of pentobarbital. A shunt is provided which consists of a central catheter and two lateral catheters. A natural white silk thread is introduced into the central part and the circulation is restarted for 20 minutes. After stopping the circulation by clamping, the thread is gently withdrawn and weighed immediately.
Treatment was carried out for 48 hours, 24 hours and 2 hours before the start of the blood circulation in shunt.
The test compounds were administered orally to different groups of animals in the form of a suspension in 10 ml. of 5% gum arabic/kg., the doses used being 12.5 mg./kg., 25 mg./kg., 50 mg./kg., 100 mg./kg. and 200 mg./kg.

[5] = system: platelet aggregation induced by ADP; assay: kinetic study of platelet aggregation induced by ADP (Born's nephelometric method, Bryston aggregometer), intraperitoneal; format: in vivo; conditions: rats
Procedure: A further experiment was carried out, relating to the kinetic study of the compounds of the present invention.
The blood sample is taken 10 minutes and 60 minutes after this administration and is centrifuged to obtain a plasma enriched in platelets.
The platelet aggregation in the plasma, induced by ADP is measured in a Bryston aggregometer, using Born's nephelometric method.

[6] = 5 mg/kg oral, single dose, 3 hours after treatment, relative to control
[7] = 12.5 mg/kg oral, single dose, 3 hours after treatment, relative to control
[8] = 25 mg/kg oral, single dose, 3 hours after treatment, relative to control
[9] = 50 mg/kg oral, single dose, 3 hours after treatment, relative to control
[10] = 100 mg/kg oral, single dose, 3 hours after treatment, relative to control

| Structure (SMILES) | inhibition at 5 mg/kg [1, 6] | inhibition at 12.5 mg/kg [1, 7] | inhibition at 25 mg/kg [1, 8] | inhibition at 50 mg/kg [1, 9] | inhibition at 100 mg/kg [1, 10] | inhibition at 5 mg/kg [2, 6] | inhibition at 12.5 mg/kg [2, 7] | inhibition at 25 mg/kg [2, 8] | inhibition at 50 mg/kg [2, 9] | inhibition at 100 mg/kg [2, 10] | LD50 at 24 h [3] | minimal effective dose ([1]; 3 h) | other results |
| --- | --- | --- | --- | --- | --- | --- | --- | --- | --- | --- | --- | --- | --- |
| N#Cc1ccccc1CN1CCC2SC(=O)C=C2C1 (stereo not shown) [Derivative 7, 5-(o-Cyanobenzyl)-5,6,7,7a-tetrahydro-4H-thieno[3,2-c]-pyridin-2-one] | 47.6% | 82.7% | 82.9% | 83.1% | 83.2% | 16.5% | 44.5% | 86.2% | 87.9% | 89.4% | 254 mg/kg |  |  |
| O=C1C=C2CN(Cc3ccccc3[N+](=O)[O-])CCC2S1 (stereo not shown) [Derivative 8, 5-(o-Nitrobenzyl)-5,6,7,7a-tetrahydro-4H-thieno[3,2-c]-pyridin-2-one] | 48% | 82.8% | 83.1% | 83.3% | 83.4% | 17% | 44.6% | 86.2% | 88.2% | 88.7% | 278 mg/kg |  |  |
| O=C1C=C2CN(Cc3ccccc3Br)CCC2S1 (stereo not shown) [Derivative 9, 5-(o-Bromobenzyl)-5,6,7,7a-tetrahydro-4H-thieno[3,2-c]-pyridin-2-one] |  |  |  |  |  |  |  |  |  |  | 118 mg/kg |  | inhibition at 5 mg/kg ([1]; po, 3 h): 48.4%; inhibition at 12.5 mg/kg ([1]; po, 3 h): 83.1%; inhibition at 25 mg/kg ([1]; po, 3 h): 83.4%; inhibition at 50 mg/kg ([1]; po, 3 h): 83.7%; inhibition at 100 mg/kg ([1]; po, 3 h): 84%; inhibition at 5 mg/kg ([2]; po, 3 h): 17.2%; inhibition at 12.5 mg/kg ([2]; po, 3 h): 44.9%; inhibition at 25 mg/kg ([2]; po, 3 h): 86.4%; inhibition at 50 mg/kg ([2]; po, 3 h): 87.6%; inhibition at 100 mg/kg ([2]; po, 3 h): 88.6% |
| Clc1ccccc1CN1CCc2sccc2C1 [Reference compound A, 5-(2-chlorobenzyl)-4,5,6,7-tetrahydrothieno[3,2-c]pyridine, reference compound] | 0% | 0% | 0% | 34.6% | 63.2% | 0% | 0% | 40.9% | 46.8% | 80.1% |  | 100 mg/kg | Average weight of the thrombi ([4]; 12.5 mg/kg oral, 48, 24 and 2 hours before): 30.45 mg; Average weight of the thrombi ([4]; 25 mg/kg oral, 48, 24 and 2 hours before): 30.09 mg; Average weight of the thrombi ([4]; 50 mg/kg oral, 48, 24 and 2 hours before): 28.86 mg; Average weight of the thrombi ([4]; 100 mg/kg oral, 48, 24 and 2 hours before): 23.04 mg; Average weight of the thrombi ([4]; 200 mg/kg oral, 48, 24 and 2 hours before): 23.13 mg; anti-thrombosis action ([4]; even at high doses): no anti-thrombosis action whatsoever; percentage inhibition as a function of time (platelet aggregation, ADP) ([5]; 10 minutes after 100 mg/kg intraperitoneal in propylene glycol): 22%; percentage inhibition as a function of time (platelet aggregation, ADP) ([5]; 60 minutes after 100 mg/kg intraperitoneal in propylene glycol): 39% |
| N#Cc1ccccc1CN1CCc2sccc2C1 [Reference compound B, 5-(2-cyanobenzyl)-4,5,6,7-tetrahydrothieno[3,2-c]pyridine, reference compound] | 0% | 0% | 0% | 35.5% | 63.8% | 0% | 0% | 38.5% | 51.2% | 78.8% | 45 mg/kg | 100 mg/kg |  |
